“Also recorded” adds a separate entry of the source. Square brackets hold non-standard residues; d marks the D form. Ends that are not written are not given here. Peptide text beside a SMILES is read from it.
Legend:
MDA-MB-231 cells [1] = experiment: Wound healing assay; type: cell-based; settings: equimolar peptide concentrations; compared to untreated cells
Protocol: (§1) The wound healing assay was performed using two breast cancer cell lines, MDA-MB-231 and MCF-7, and two prostate cancer cell lines, PC-3 and DU-145, to evaluate the antimigratory capacity of the peptides. […] The cells were grown to approximately 80% confluency in 12-well tissue culture plates, and a cell-free area was created by scraping the monolayer. The peptides were added, and the cells were incubated at 37 °C with 5% CO2 for 24 h. Wound closure was assessed by imaging the wounds at 0 and 24 h, and the wound areas were quantified using ImageJ software (https://imagej.net/ij/). In the transwell invasion assay, MDA-MB-231 cells were serum starved for 4 h followed by a pretreatment with increasing concentrations of each peptide in a 0.1% serum-containing DMEM for 24 h. The cells were then trypsinized, resuspended in same media for the second treatment of peptides, and counted. Next, 40,000 cells were resuspended in 0.1% serum containing DMEM and added to the upper chamber of Transwell plates (Corning Life Sciences) with a polyethylene terephthalate membrane (6.4 mm diameter, 8 μm pore size). The bottom chambers were filled with DMEM containing 10% FBS as a chemoattractant. The transwell plates were incubated at 37 °C with 5% CO2 for 24 h to allow the invasion of cells through the membrane. The invaded cells on the lower side of the membrane were fixed with 4% paraformaldehyde for 15 min, followed by a PBS wash. The membrane inserts were further fixed with ice-cold methanol for 20 min and stained with 0.25% (w/v) crystal violet. After incubation, the noninvasive cells on the upper surface of the membrane were gently removed using a cotton swab. Random fields were chosen for imaging, and the number of invaded cells was counted using ImageJ software. The results were expressed as the average number of invaded cells compared with the control.

MDA-MB-231 cells [2] = experiment: Transwell invasion assay; type: cell-based; settings: 24 h
Protocol: as §1

[3] = Mouse liver microsome stability; settings: for remaining at 2 h, 2 μM / half-life at 2 μM: male; for remaining at 2 h, 2 μM: Institute of Cancer Research/CD-1, mouse; for half-life at 2 μM: ICR/CD-1, mouse
Protocol: An NADPH-regenerating system (1.7 mg/ml NADP, 7.8 mg/ml glucose-6-phosphate, 6 U/ml glucose-6-phosphate dehydrogenase in 2% w/v NaHCO3/10 mm MgCl2) was added for analysis of Phase I metabolism after heating both the regenerating solution and the sample tubes to 37 °C for 5 min in a 37 °C shaking water bath. The incubation was continued and at varying time points after addition of phase I cofactors, the reaction was stopped by the addition of 0.5 ml of acetonitrile containing IS and formic acid such that the final concentration of IS was 100 ng/ml and acid was 0.1%. Time 0 samples were stopped with the acetonitrile solution while still on ice prior to addition of the NADPH regenerating system and compound, which were subsequently added. The samples were incubated for 10 min at room temperature and then spun at 16,100g for 5 min in a microcentrifuge at 4 °C. The supernatant was analyzed by LC-MS/MS. The method described by McNaney et al. was used with modification for determination of metabolic stability half-life by substrate depletion ([59]). A “% remaining” value was used to assess the metabolic stability of a compound over time. The LC-MS/MS peak area of the incubated sample at each time point was divided by the LC-MS/MS peak area of the time 0 (T0) sample and multiplied by 100. The natural Log (LN) of the % remaining of compound was then plotted versus time (in min) and a linear regression curve was plotted going through y-intercept at LN (100).

MDA-MB-231 cells [4] = experiment: Western blot of MIEN1 signaling pathway proteins; type: cell-based; settings: mean values of immunoblot densitometry
Protocol: Cells were exposed to the peptides and subjected to Western blot analysis with the indicated antibodies. […] Cytoplasmic and nuclear cell lysate extracts of EGF only and EGF plus peptide-treated cells were probed for p65 and p50. Lamin A/C and β-actin were used as nuclear and cytoplasmic loading control respectively. Densitometry was determined with immunoblots (N = 3) and normalized to total protein or β-actin for whole cell lysates and cytoplasmic fraction of peptide-treated MDA-MB-231 cells. In case of nuclear lysates, the immunoblots were normalized with Lamin A/C. Bar graphs are densitometric data (means ± SD). […] EGF concentration: (10 ng/ml); Peptide concentration: 90 μM. EGF, epidermal growth factor; MIEN1, migration and invasion enhancer 1; NF-κB, nuclear factor kappa B.
Western blot analysis was performed according to standard protocols to assess the effects of MIEN1-derived peptides and their analogs on MDA-MB-231 cells and DU-145 cells. Cell lysates were prepared using radioimmunoprecipitation assay buffer and quantified for protein content by bicinchoninic acid method. […] Protein blocking with 5% bovine serum albumin was followed by incubation with primary antibodies specific to various proteins at 4 °C for 8 to 10 h. The membrane was then washed three times in Tris Buffered Saline with Tween 20 and incubated with the appropriate secondary antibody. Protein bands were visualized using the Alpha Innotech chemiluminescent detection system. In case of MDA-MB-231 cells, cytoplasmic and nuclear extracts were isolated to investigate the effects of peptides and/or EGF stimulation. Prior to exposure to the cells, the test peptides (90 μM) were incubated with EGF (10 ng/ml) in media at 4 °C for 15 min. The untreated MDA-MB-231 cells received EGF alone at the same concentration. The isolation of cytoplasmic and nuclear fractions was performed using the Subcellular Protein Fractionation Kit for Cultured Cells from Thermo Fisher Scientific (cat #78840) following the manufacturer's guidelines. For Western blot experiments, 20 μg of purified cytoplasmic and nuclear fraction was used.
Densitometry analysis of Western blot data was conducted using the AlphaView-FluorChem HD2 software of the Alpha Innotech chemiluminescent detection system (https://www.cambridgescientific.com/product/alpha-innotech-fluorchem-hd2-gel-imaging-system). To quantify band intensities, a uniform rectangle was drawn around each band, and background subtraction was applied to determine the total pixel density for each lane. Further calculations, including the determination of the ratio of phosphorylated proteins to total proteins or other loading controls, were carried out using Microsoft Excel. […]

[5] = Pharmacokinetic studies in CD1 mice; settings: in vivo, iv, 5 mg/kg
NIH-3T3 = type: cell-based, murine; settings: MTT, 48 hours; normal cells
Protocol: (§2) MDA-MB-231, MCF-7, DU-145, PC-3, and NIH-3T3 cell lines were procured from the American Type Culture Collection and used within ten consecutive passages to ensure consistent cell behavior. MDA-MB-231, MCF-7, and NIH-3T3 cells were maintained at 37 °C and 5% CO2 in Dulbecco's modified Eagle's medium (DMEM) high glucose (Hyclone) supplemented with 10% fetal bovine serum (FBS) and 1% Antibiotic-Antimycotic (Gibco), while DU-145 and PC-3 cells were grown in RPMI-1640 supplemented with the same concentration of FBS and Antibiotic-Antimycotic. The media was replenished every 2 days. Cells were checked for mycoplasma at regular intervals using a PCR-based Mycoplasma detection kit plasmocin prophylactic (InvivoGen). In all experiments, cells were maintained in serum-free DMEM for 6 h before peptide treatment. Peptide treatment was done in the media containing 0.1% fetal bovine serum for 48 h in all the experiments unless otherwise stated.
(§3) Cell viability was determined by 3-[4,5-dimethylthiazol-2-yl]-2,5 diphenyl tetrazolium bromide (MTT) assay as described earlier ([52]). ProTox-II "Prediction of Toxicity of Chemicals" web server was used for toxicology assessment ([19]). See the Supporting Information for full experimental details.
(§4) Full Experimental Method for Cell Viability Assay:
(§5) Cell viability of murine NIH- 3T3 cells, as well as MDA- MB -231 , MC F-7, PC- 3, and DU-145 cells, wa s assessed through the MT T assay as described previously(1). Approximately
(§6) 5000 cells per well were seeded in a 96-well plate and allowed to incubate overnight for attachment. Following attachment, the growth medium was replaced wit h a fresh medium
(§7) containing serial dilutions of peptides. The cells we re then incubated for 48 hours in a 5% CO2 incubator . After incubation, 10 μl of a 5 mg/mL MT T solution was introduced to each
(§8) well and left to incubate for an additional 2 hours . Subsequently, the entire medium, along wit h the MT T solution, was aspirated, and the remaining formazan crystals were dissolved
(§9) in 200 μl of DMSO. The absorbance was measured at 595 nm using a Biotek Synergy 2 Plate Reader. […]
(§10) ProTox-II "Prediction of Toxicity of Chemicals" we b server was used for toxicology assessment. […]

PC-3 = type: cell-based; settings: MTT, 48 hours
Protocol: as §2, §3, §4, §5, §6, §7, §8, §9, §10

MDA-MB-231 = type: cell-based; settings: MTT, 48 hours
Protocol: as §2, §3, §4, §5, §6, §7, §8, §9, §10

MCF-7 = type: cell-based; settings: MTT, 48 hours
Protocol: as §2, §3, §4, §5, §6, §7, §8, §9, §10

DU-145 = type: cell-based; settings: MTT, 48 hours
Protocol: as §2, §3, §4, §5, §6, §7, §8, §9, §10

[6] = In vivo toxicity of peptides alone; design: species or system athymic nude mice; settings: for body weight / signs of distress / survival: 90 mg/Kg ip on day 5, day 10 and day 15; for survival: after 30 days; for signs of toxicity: three ip doses of 90 mg/Kg, 90 mg/kg
Protocol: MDA-MB-231 cells were implanted orthotopically into the second thoracic mammary fat pad of nude mice (n = 5). […] The control mice received vehicle only. B, at the end of the experiments, representative tumors were removed and photographed. […] The tumor sizes were measured by a digital caliper and shown as mean volume ± SDs every alternate day for 30 days. […] The statistical analysis was performed on GraphPad Prism 9.4.0. […] E–H, Western blots of cell lysates prepared from the tumors of untreated tumor (Vehicle) versus LA3IK and RP-7 for apoptosis-associated proteins. Number of tumors taken for study = 4 per group. Densitometry was determined and normalized to β-actin. Bar graphs are densitometric data (means ± SD). Data analyzed by one-way ANOVA. ∗p < 0.05,∗∗p <0.01 and ∗∗∗p < 0.001. Full-length representative blots are in Figure S8(2). […] The mice were monitored for changes in body weights as a surrogate marker for toxicity.
Cleaved caspase-3 plays a pivotal role in transmitting apoptotic signals through its enzymatic actions on downstream targets, including PARP and other substrates. PARP, which is an ADP-ribosylating enzyme, is essential for initiating various types of DNA repair processes ([29]). However, when it is cleaved by activated caspase-3, PARP loses its functionality, leading to the suppression of DNA repair mechanisms. This, in turn, may promote cell death through both caspase-dependent and caspase-independent pathways of apoptosis ([30]).

Compound: CC[C@H](C)[C@H](NC(=O)[C@@H](NC(=O)[C@H](CS)NC(=O)[C@@H]1CCCN1C(=O)[C@@H]1CCCN1C(=O)[C@H](CCCNC(=N)N)NC(=O)[C@H](CS)NC(C)=O)C(C)C)C(=O)N[C@@H](CC(C)C)C(N)=O [CR-8] (Ac-CRPPCVIL-NH2)
- inhibition of migration (MDA-MB-231 cells [1]): limited inhibition
- number of invaded MDA-MB-231 cells / inhibition of invasion (MDA-MB-231 cells [2]): limited inhibition

Compound: CC[C@@H](C)[C@@H](NC(=O)[C@H](NC(=O)[C@@H](CS)NC(=O)[C@H]1CCCN1C(=O)[C@H]1CCCN1C(=O)[C@@H](CCCNC(=N)N)NC(C)=O)C(C)C)C(=O)N[C@H](CC(C)C)C(N)=O [D-RP-7] (Ac-[dR][dP][dP][dC][dV][dI][dL]-NH2)
- remaining at 2 h, 2 μM ([3]; microsomes, pH 7.5): 64.4%
- half-life ([3]; mouse, microsomes, Mouse Liver Microsome T ½ (h), 2 μM peptide, 0.5 mg/ml microsome protein, NADPH-regenerating system): > 2 h
- greater inhibition of FAK phosphorylation than L-peptide counterpart (MDA-MB-231 cells [4]): 24.2%
- greater inhibition of SRC phosphorylation than L-peptide counterpart (MDA-MB-231 cells [4]): 29.5%
- MRT ([5]; female, CD1, mouse): 5.7 h
- Tmax ([5]; female, CD1, mouse): 4.8 min
- Vd ([5]; female, CD1, mouse): 1700 L/kg
- Cmax ([5]; mouse): 48 ng/mL
- Vd ([5]; mouse): 1310 L/kg
- clearance ([5]; mouse): 1420 mL/min/kg
- half-life ([5]; mouse): 13.8 h
- IC50 (NIH-3T3): 210 ± 8.41 µM
- IC50 (PC-3): 101 ± 5.73 µM
- IC50 (MDA-MB-231): 95 ± 7.71 µM
- IC50 (MCF-7): 90 ± 10.3 µM
- IC50 (DU-145): 122 ± 6.56 µM

Compound: CC[C@H](C)[C@H](NC(=O)[C@H](C)NC(=O)[C@H](CC(C)C)NC(C)=O)C(=O)N[C@@H](C)C(=O)N[C@H](C(=O)N[C@@H](CCCCN)C(N)=O)C(C)C [LA3IK, LAIAVK]
- half-life at 2 μM ([3]; liver microsomes, pH 7.5): > 2 h
- remaining at 2 h, 2 μM ([3]; liver microsomes, pH 7.5): 83.7%
- body weight / signs of distress [6]: No body weight loss or other signs of distress
- survival [6]: All mice (N = 3) were alive
- signs of toxicity [6]: did not display any signs of toxicity; also recorded: no significant toxicity

Compound: Ac-RPPCVIL-NH2 [RP-7]
- half-life at 2 μM ([3]; microsomes, pH 7.5, Mouse Liver Microsome T1/2, 2 μM peptide): 0.872 h
- half-life at 2 μM ([3]; microsomes, pH 7.5, Mouse Liver Microsome T ½ (h), 2 μM peptide, 0.5 mg/ml microsome protein, NADPH-regenerating system): 0.87 h
- remaining at 2 h, 2 μM ([3]; microsomes, pH 7.5): 17.7%
- body weight / signs of distress [6]: No body weight loss or other signs of distress
- survival [6]: All mice (N = 3) were alive
- signs of toxicity [6]: did not display any signs of toxicity; also recorded: no significant toxicity
- IC50 (NIH-3T3): 221 ± 6.23 µM
- IC50 (PC-3): 113 ± 8.02 µM
- IC50 (MDA-MB-231): 139 ± 8.41 µM
- IC50 (MCF-7): 110 ± 4.23 µM
- IC50 (DU-145): 121 ± 7.08 µM

Compound: Ac-SRPPCVIL-NH2 [SR-8]
- inhibition of migration (MDA-MB-231 cells [1]): limited inhibition
- number of invaded MDA-MB-231 cells / inhibition of invasion (MDA-MB-231 cells [2]): limited inhibition
- IC50 (NIH-3T3): > 600 µM
- IC50 (PC-3): > 600 µM
- IC50 (MDA-MB-231): 528.3 ± 4.57 µM
- IC50 (MCF-7): 141 ± 12.9 µM
- IC50 (DU-145): > 600 µM

Compound: LASAVK [LA-6, LASAVK]
- inhibition of migration (MDA-MB-231 cells [1]): limited inhibition
- number of invaded MDA-MB-231 cells / inhibition of invasion (MDA-MB-231 cells [2]): limited inhibition
- IC50 (NIH-3T3): > 600 µM
- IC50 (PC-3): > 600 µM
- IC50 (MDA-MB-231): > 600 µM
- IC50 (MCF-7): > 600 µM
- IC50 (DU-145): > 600 µM

— PMC10878790 (The Journal of Biological Chemistry, 2024)
